Patent EP4759807A1, “PROTEOLYSIS TARGETING CHIMERA COMPOUND FOR DEGRADING IRAK4 AND USE THEREOF” (Shenzhen Zhongge Biological Technology Co., Ltd., priority 2023, dated 2025)
Structures can show the parent of a compound that is named as a salt.

Tests used:
[1] = target: T1, IRAK4 (Homo sapiens, UniProt Q9NWZ3); assay: WB detection of proteolysis (Western Blot, THP-1 cells); type: cell-based
T1 sequence (Q9NWZ3 1-460): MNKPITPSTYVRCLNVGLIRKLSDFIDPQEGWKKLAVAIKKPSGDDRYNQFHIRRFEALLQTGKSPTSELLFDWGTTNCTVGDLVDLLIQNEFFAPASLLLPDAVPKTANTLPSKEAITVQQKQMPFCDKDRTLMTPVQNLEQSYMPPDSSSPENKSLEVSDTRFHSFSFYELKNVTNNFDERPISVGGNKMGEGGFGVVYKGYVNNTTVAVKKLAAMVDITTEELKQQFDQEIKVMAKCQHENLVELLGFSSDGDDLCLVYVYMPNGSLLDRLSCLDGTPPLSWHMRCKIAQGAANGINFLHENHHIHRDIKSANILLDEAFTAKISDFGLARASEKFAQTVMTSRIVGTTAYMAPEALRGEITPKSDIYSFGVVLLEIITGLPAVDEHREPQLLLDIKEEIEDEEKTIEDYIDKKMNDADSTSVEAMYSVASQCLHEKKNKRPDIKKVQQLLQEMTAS
Procedure: The degradation level of IRAK4 in THP-1 cells was detected by Western Blot technology. […] 1000X gradient dilution stock of the compound was prepared, with the highest concentration set at 300 µM. The dilution was carried out using DMSO in a 1:3 dilution factor, yielding a total of 9 concentrations. 1000X gradient dilutions of the compound were added to a 12-well plate, with 1 µL per well. Incubation was performed under conditions of 37°C and 5% CO2 for 24 h, and the cells were collected into 2 mL of centrifuge tubes and centrifuged at 5000 rpm for 5 min, and the supernatant was removed. 100 µL of RIPA lysis buffer (Beyotime, P0013C) was added and mixed uniformly, then the cells were lysed on ice for 10 min, centrifuged at 4°C at 14000 rpm for 10 min, and the supernatant was collected. Protein content was determined with BCA (Solarbio, PC0020-10*50T). 75 µL of the supernatant was taken, and 25 µL of NuPAGE LDS Sample Buffer (4X) (Thermo B0007) was added to each tube (5% β-mercaptoethanol was added before use) to prepare samples, and the samples were boiled in a metal bath at 100°C for 5 min. […] 1x NuPAGE™ MOPS SDS electrophoresis buffer (20X) (Invitrogen, NP0001) was prepared, and the electrophoresis instrument was set to a constant current of 300 mA for 100 min, and the protein was transferred to a PVDF membrane (Millipore, IPVH00010). […] The membrane was washed three times with 1x TBST (Elabscience E-BC-R335) the next day, each time for 5 min. […] The membrane was washed three times with TBST, each time for 5 min. The Odyssey imaging system Li-cor Odyssey CLx was used to detect signals and analyze data. GraphPad (Prism 9.3) software was used to perform analysis for data, and non-linear fitting (non-liner inhibitor (Bell-shaped)) and four parameters (4 parameter) were used, and the parameters was as follows: Span1 = Plateau1−Dip [formula] Span2 = Plateau2−Dip [formula] Section1 = Span1/(1+10^(∧)((LogEC50_1−X)*nH1)) [formula] Section2 = Span2/(1+10^(∧)((X−LogEC50_2)*nH2)) [formula]
The equation was as follows: Y=Dip+Section1+Section2.

[2] = target: T1, IRAK4; assay: Hibit fluorescence detection of proteolysis (IRAK4-HiBiT in HEK293T cells); type: cell-based; set-up: host or cells: HEK293T (ATCC); settings: for Dmax: HEK-293T; for DC50: IRAK4-HiBiT, HEK293T cells, 24 h
Procedure, shortened: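 Degradation read-out: luminescence from lytic HiBiT detection (15 min, room temperature) after 24 h compound exposure (37 °C, 5% CO2) of HEK293T cells transiently expressing IRAK4 fused to a HiBiT tag. Data fitted to a bell-shaped four-parameter model giving two EC50 values.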

[3] = Western Blot, THP-1 cells, 24 h, read-out: DC50
[4] = Western Blot, THP-1 cells, 24 h, read-out: Dmax

Compound | Dmax ([1]; THP-1) | DC50 ([1]; Western Blot, THP-1 cells, 24 h) | Dmax [2] | DC50 [2] | DC50 [1, 3] | Dmax [1, 4]
Cn1c(=O)n(C2CCC(=O)NC2=O)c2cccc(N3CCC4(CCN(C[C@H]5CC[C@H](n6cc(-n7cc(-n8ccc9cc(C(N)=O)cnc98)nn7)c(C(F)F)n6)CC5)C4)CC3)c21 (stereo partly shown) [Example 97, 1-(1-(3-(difluoromethyl)-1-((1r,4r)-4-((8-(1-(2,6-dioxopiperidin-3-yl)-3-methyl-2-oxo-3,3-dihydro-1H-benzo[d]imidazol-4-yl)-2,8-diazaspiro[4.5]dec-2-yl)methyl)cyclohexyl)-1H-pyrazol-4-yl)-1H-1-1,2,3-triazolyl)-1H-pyrrolo[2,3-b]pyridine-5-carboxamide] | > 70% | < 10 nM | > 80% | < 0.5 nM |  | 
C[C@H]1COCCN1c1ccn2ncc(-c3cn(-c4cn([C@H]5CC[C@H](CN6CCN(C7CCN(c8cccc9c8n(C)c(=O)n9C8CCC(=O)NC8=O)CC7)CC6)CC5)nc4C(F)F)nn3)c2n1 (stereo partly shown) [Example 59] |  |  | 70 to 80% | < 0.5 nM | < 10 nM | > 70%
Cn1c(=O)n(C2CCC(=O)NC2=O)c2cccc(N3CCC4(CCN(C[C@H]5CC[C@H](n6cc(-n7cc(-c8cnn9ccc(N%10CCC[C@H](O)C%10)nc89)nn7)c(C(F)F)n6)CC5)CC4)CC3)c21 (stereo partly shown) [Example 142] |  |  | > 80% | < 0.5 nM | < 10 nM | > 70%
Cn1c(=O)n(C2CCC(=O)NC2=O)c2cccc(N3CCC4(CCN(C[C@H]5CC[C@H](n6cc(-n7cc(-c8cnn9ccc(N[C@@H]%10CCCC[C@@H]%10O)nc89)nn7)c(C(F)F)n6)CC5)C4)CC3)c21 (stereo partly shown) [Example 154] |  |  | > 80% | < 0.5 nM | < 10 nM | > 70%
Cn1c(=O)n(C2CCC(=O)NC2=O)c2cccc(N3CCC4(CCN(C[C@H]5CC[C@H](n6cc(-n7cc(-c8cnn9ccc(N[C@H]%10CCCC[C@H]%10O)nc89)nn7)c(C(F)F)n6)CC5)CC4)CC3)c21 (stereo partly shown) [Example 148] |  |  | > 80% | < 0.5 nM | 10 to 30 nM | > 70%
Cn1c(=O)n(C2CCC(=O)NC2=O)c2cccc(N3CCC(N4CCN(C[C@H]5CC[C@H](n6cc(-n7cc(-c8cnn9ccc(N%10CCC(C)(O)CC%10)nc89)nn7)c(C(F)F)n6)CC5)CC4)CC3)c21 (stereo partly shown) [Example 124] |  |  | > 80% | < 0.5 nM | < 10 nM | 60 to 70%
Cn1c(=O)n(C2CCC(=O)NC2=O)c2cccc(C3CCN(C[C@H]4CC[C@H](n5cc(-n6cc(-c7ccc8cc(C(N)=O)cnn78)nn6)c(C(F)F)n5)CC4)CC3)c21 (stereo partly shown) [Example 84, 7-(1-(3-(difluoromethyl)-1-((1r,4r)-4-((4-(1-(2,6-dioxopiperidin-3-yl)-3-methyl-2-oxo-2,3-dihydro-1H-benzo[d]imidazol-4-yl)piperidin-1-yl)methyl)cyclohexyl)-1H-pyrazol-4-yl)-1H-1,2,3-triazol-4-yl)pyrrolo[1,2-b]pyridazine-3-carboxamide] |  |  | > 80% | < 0.5 nM | < 10 nM | < 60%
Cn1c(=O)n(C2CCC(=O)NC2=O)c2cccc(N3CCC(N4CCN(C[C@H]5CC[C@H](n6cc(-n7cc(-c8cnn9ccc(N[C@H]%10CCCC[C@H]%10O)nc89)nn7)c(C(F)F)n6)CC5)CC4)CC3)c21 (stereo partly shown) [Example 122] |  |  | > 80% | < 0.5 nM | < 10 nM | > 70%
Cn1c(=O)n(C2CCC(=O)NC2=O)c2cccc(N3CCC4(CCN(C[C@H]5CC[C@H](n6cc(-n7cc(-c8cnn9ccc(N%10CCOCC%10)nc89)nn7)c(C(F)F)n6)CC5)CC4)CC3)c21 (stereo partly shown) [Example 36] |  |  | > 80% | < 0.5 nM | < 10 nM | 60 to 70%
Cn1c(=O)n(C2CCC(=O)NC2=O)c2cccc(N3CCC4(CCN(C[C@H]5CC[C@H](n6cc(-n7cc(-c8cnn9ccc(N%10CCOCC%10)nc89)nn7)c(C(F)F)n6)CC5)C4)CC3)c21 (stereo partly shown) [Example 39, 3-(4-(2-(((1r,4r)-4-(3-(difluoromethyl)-4-(4-(5-morpholinopyrazolo[1,5-a]pyrimidin-3-yl)-1H-1,2,3-triazol-1-yl)-1H-pyrazol-1-yl)cyclohexyl)methyl)-2,8-diazaspiro[4.5]dec-8-yl)-3-methyl-2-oxo-2,3-dihydro-1H-benzo[d]imidazol-1-yl)piperidine-2,6-dione] |  |  | > 80% | < 0.5 nM | < 10 nM | > 70%
Cn1c(=O)n(C2CCC(=O)NC2=O)c2cccc(N3CCC4(CCN(C[C@H]5CC[C@H](n6cc(-n7cc(-c8ccc9cc(C(N)=O)cnn89)nn7)c(C(F)F)n6)CC5)CC4)CC3)c21 (stereo partly shown) [Example 85, 7-(1-(3-(difluoromethyl)-1-((1r,4r)-4-((9-(1-(2,6-dioxopiperidin-3-yl)-3-methyl-2-oxo-2,3-dihydro-1H-benzo[d]imidazol-4-yl)-3,9-diazaspiro[5.5]undecan-3-yl)methyl)cyclohexyl)-1H-pyrazol-4-yl)-1H-1,2,3-triazol-4-yl)pyrrolo[1,2-b]pyridazine-3-carboxamide] |  |  | > 80% | < 0.5 nM | < 10 nM | > 70%
Cn1c(=O)n(C2CCC(=O)NC2=O)c2cccc(N3CCN(C[C@H]4CC[C@H](n5cc(-n6cc(-c7cnn8ccc(N9CCC[C@H](N)C9)nc78)nn6)c(C(F)F)n5)CC4)CC3)c21 (stereo partly shown) [Example 115] |  |  | > 80% | < 0.5 nM | < 10 nM | > 70%
Cn1c(=O)n(C2CCC(=O)NC2=O)c2cccc(N3CCC(N4CCN(C[C@H]5CC[C@H](n6cc(-n7cc(-c8cnn9ccc(N%10CCNCC%10)nc89)nn7)c(C(F)F)n6)CC5)CC4)CC3)c21 (stereo partly shown) [Example 127, 3-(4-(4-(4-(((1r,4r)-4-(3-(difluoromethyl)-4-(4-(5-(piperazin-1-yl))pyrazolo[1,5-a]pyrimidin-3-yl)-1H-1,2,3-triazol-1-yl)-1H-pyrazol-1-yl)cyclohexyl)methyl)piperazin-1-yl)piperidin-1-yl)-3-methyl-2-oxo-2,3-dihydro-1H-benzo[d]imidazol-1-yl)piperidine-2,6-dione dihydrochloride] |  |  | > 80% | < 0.5 nM | 10 to 30 nM | > 70%
Cn1c(=O)n(C2CCC(=O)NC2=O)c2cccc(N3CCC4(CCN(C[C@H]5CC[C@H](n6cc(-n7cc(-c8ccc9cc(C(N)=O)cnn89)nn7)c(C(F)F)n6)CC5)C4)CC3)c21 (stereo partly shown) [Example 37] |  |  | > 80% | < 0.5 nM | < 10 nM | 60 to 70%
Cn1c(=O)n(C2CCC(=O)NC2=O)c2cccc(N3CCN(C[C@H]4CC[C@H](n5cc(-n6cc(-c7cnn8ccc(N9CCOCC9)nc78)nn6)c(C(F)F)n5)CC4)CC3)c21 (stereo partly shown) [Example 30] |  |  | > 80% | < 0.5 nM | < 10 nM | < 60%
C[C@H]1CN(c2cccc3c2n(C)c(=O)n3C2CCC(=O)NC2=O)CCN1C[C@H]1CC[C@H](n2cc(-n3cc(-c4cnn5ccc(N6CCC[C@H](O)C6)nc45)nn3)c(C(F)F)n2)CC1 (stereo partly drawn) [Example 287, 3-(4-((S)-4-(((1R,4S)-4-(3-(difluoromethyl)-4-(4-(5-((S)-3-hydroxypiperidin-1-yl)pyrazolo[1,5-a]pyrimidin-3-yl)-1H-1,2,3-triazol-1-yl)-1H-pyrazol-1-yl)cyclohexyl)methyl)-3-methylpiperazin-1-yl)-3-methyl-2-oxo-2,3-dihydro-1H-benzo[d]imidazol-1-yl)piperidine-2,6-dione] |  |  |  |  | < 10 nM | > 70%
C[C@@H]1CC2(CCN(c3cccc4c3n(C)c(=O)n4C3CCC(=O)NC3=O)CC2)CN1C[C@H]1CC[C@H](n2cc(-n3cc(-c4cnn5ccc(N6CCC[C@H](O)C6)nc45)nn3)c(C(F)F)n2)CC1 (stereo partly shown) [Example 296] |  |  |  |  | 10 to 30 nM | > 70%
